Assay results from PubChem BioAssay (NCI).
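These data come from cells grown in 96-well plates and exposed to compound for 48 hours at five concentrations. GI50 = concentration required for 50% inhibition of growth. TGI: concentration producing complete growth inhibition.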

Legend:
Assay in all cases: DTP human tumour cell line panel, 48 h
UACC-257 melanoma = system: UACC-257 melanoma
OVCAR-5 ovarian = system: OVCAR-5 ovarian
OVCAR-8 ovarian = system: OVCAR-8 ovarian
TK-10 renal = system: TK-10 renal
OVCAR-3 ovarian = system: OVCAR-3 ovarian
LOX IMVI melanoma = system: LOX IMVI melanoma
NCI-H23 lung = system: NCI-H23 lung
SK-MEL-28 melanoma = system: SK-MEL-28 melanoma
COLO 205 colon = system: COLO 205 colon
786-0 renal = system: 786-0 renal
SNB-19 CNS = system: SNB-19 CNS
SF-295 CNS = system: SF-295 CNS
SNB-75 CNS = system: SNB-75 CNS
OVCAR-4 ovarian = system: OVCAR-4 ovarian
MCF7 breast = system: MCF7 breast
SK-OV-3 ovarian = system: SK-OV-3 ovarian
HCC-2998 colon = system: HCC-2998 colon
BT-549 breast = system: BT-549 breast
SK-MEL-5 melanoma = system: SK-MEL-5 melanoma
HCT-15 colon = system: HCT-15 colon
MALME-3M melanoma = system: MALME-3M melanoma
MDA-MB-231 breast = system: MDA-MB-231 breast
NCI-H522 lung = system: NCI-H522 lung
MOLT-4 leukemia = system: MOLT-4 leukemia
DU-145 prostate = system: DU-145 prostate
SF-539 CNS = system: SF-539 CNS
K-562 leukemia = system: K-562 leukemia
SW-620 colon = system: SW-620 colon
CAKI-1 renal = system: CAKI-1 renal
NCI-H460 lung = system: NCI-H460 lung
U251 CNS = system: U251 CNS
T-47D breast = system: T-47D breast
PC-3 prostate = system: PC-3 prostate
HS 578T breast = system: HS 578T breast
KM12 colon = system: KM12 colon
HT29 colon = system: HT29 colon
M14 melanoma = system: M14 melanoma
HOP-62 NSCLC = system: HOP-62 NSCLC
UO-31 renal = system: UO-31 renal
SF-268 CNS = system: SF-268 CNS
HCT-116 colon = system: HCT-116 colon
A498 renal = system: A498 renal
SK-MEL-2 melanoma = system: SK-MEL-2 melanoma
ACHN renal = system: ACHN renal
MDA-MB-435 = system: MDA-MB-435
UACC-62 melanoma = system: UACC-62 melanoma
NCI/ADR-RES ovarian = system: NCI/ADR-RES ovarian
SN12C renal = system: SN12C renal
IGROV1 ovarian = system: IGROV1 ovarian
EKVX NSCLC = system: EKVX NSCLC
NCI-H226 lung = system: NCI-H226 lung
A549 NSCLC = system: A549 NSCLC

## CNC(=O)C(CCc1ccccc1)NC(=O)C(CC(=O)NO)CC(C)C (centres undefined)
UACC-257 melanoma
  GI50: > 25 µM
  TGI: > 25 µM
OVCAR-5 ovarian
  GI50: > 25 µM
  TGI: > 25 µM
OVCAR-8 ovarian
  GI50: > 25 µM
  TGI: > 25 µM
TK-10 renal
  GI50: > 25 µM
  TGI: > 25 µM
OVCAR-3 ovarian
  GI50: > 25 µM
  TGI: > 25 µM
LOX IMVI melanoma
  GI50: > 25 µM
  TGI: > 25 µM
NCI-H23 lung
  GI50: > 25 µM
  TGI: > 25 µM
SK-MEL-28 melanoma
  GI50: > 25 µM
  TGI: > 25 µM
COLO 205 colon
  GI50: > 25 µM
  TGI: > 25 µM
786-0 renal
  GI50: > 25 µM
  TGI: > 25 µM
SNB-19 CNS
  GI50: > 25 µM
  TGI: > 25 µM
SF-295 CNS
  GI50: > 25 µM
  TGI: > 25 µM
SNB-75 CNS
  GI50: > 25 µM
  TGI: > 25 µM
OVCAR-4 ovarian
  GI50: > 25 µM
  TGI: > 25 µM
MCF7 breast
  GI50: > 25 µM
  TGI: > 25 µM
SK-OV-3 ovarian
  GI50: > 25 µM
  TGI: > 25 µM
HCC-2998 colon
  GI50: > 25 µM
  TGI: > 25 µM
BT-549 breast
  GI50: > 25 µM
  TGI: > 25 µM
SK-MEL-5 melanoma
  GI50: > 25 µM
  TGI: > 25 µM
HCT-15 colon
  GI50: > 25 µM
  TGI: > 25 µM
MALME-3M melanoma
  GI50: > 25 µM
  TGI: > 25 µM
MDA-MB-231 breast
  GI50: > 25 µM
  TGI: > 25 µM
NCI-H522 lung
  GI50: > 25 µM
  TGI: > 25 µM
MOLT-4 leukemia
  GI50: > 25 µM
  TGI: > 25 µM
DU-145 prostate
  GI50: > 25 µM
  TGI: > 25 µM
SF-539 CNS
  GI50: > 25 µM
  TGI: > 25 µM
K-562 leukemia
  GI50: 19.6 µM
  TGI: > 25 µM
SW-620 colon
  GI50: > 25 µM
  TGI: > 25 µM
CAKI-1 renal
  GI50: > 25 µM
  TGI: > 25 µM
NCI-H460 lung
  GI50: > 25 µM
  TGI: > 25 µM
U251 CNS
  GI50: > 25 µM
  TGI: > 25 µM
T-47D breast
  GI50: > 25 µM
  TGI: > 25 µM
PC-3 prostate
  GI50: > 25 µM
  TGI: > 25 µM
HS 578T breast
  GI50: > 25 µM
  TGI: > 25 µM
KM12 colon
  GI50: > 25 µM
  TGI: > 25 µM
HT29 colon
  GI50: > 25 µM
  TGI: > 25 µM
M14 melanoma
  GI50: > 25 µM
  TGI: > 25 µM
HOP-62 NSCLC
  GI50: > 25 µM
  TGI: > 25 µM
UO-31 renal
  GI50: > 25 µM
  TGI: > 25 µM
SF-268 CNS
  GI50: > 25 µM
  TGI: > 25 µM
HCT-116 colon
  GI50: > 25 µM
  TGI: > 25 µM
A498 renal
  GI50: > 25 µM
  TGI: > 25 µM
SK-MEL-2 melanoma
  GI50: > 25 µM
  TGI: > 25 µM
ACHN renal
  GI50: > 25 µM
  TGI: > 25 µM
MDA-MB-435
  GI50: > 25 µM
  TGI: > 25 µM
UACC-62 melanoma
  GI50: > 25 µM
  TGI: > 25 µM
NCI/ADR-RES ovarian
  GI50: > 25 µM
  TGI: > 25 µM
SN12C renal
  GI50: > 25 µM
  TGI: > 25 µM
IGROV1 ovarian
  GI50: > 25 µM
  TGI: > 25 µM
EKVX NSCLC
  GI50: 8.31 µM
  TGI: > 25 µM
NCI-H226 lung
  GI50: > 25 µM
  TGI: > 25 µM
A549 NSCLC
  GI50: > 25 µM
  TGI: > 25 µM
